Measured values as given in paper PMC10347550, “Cyclic Ruthenium-Peptide Conjugates as Integrin-Targeting Phototherapeutic Prodrugs for the Treatment of Brain Tumors” (Journal of the American Chemical Society, 2023).
Like-named read-outs stand apart in the source and are kept apart here.

Columns and labels:
A549 cells = assay: 2D cytotoxicity assay, 24 h DLI & no wash, SRB endpoint; format: cell-based, human; conditions: for EC50: A549 2D monolayer, not washed, n = 3
Protocol: (§1) For each complex, two identical plates were prepared, one of which was irradiated with light, while the other was used as a dark control. […] Finally, at t = 96 h, 100 μL of cold trichloroacetic acid (10% w/v) was added to each well to fix the cells, and all plates were then transferred to a 4 °C refrigerator for 48 h before performing an SRB cell quantification endpoint assay.[72] Trichloroacetic acid was first removed and each plate was gently washed with demi water 3–5 times. Then, each well was dried in the air, and 100 μL of 0.6% SRB solution (0.6% w/v in 1% v/v acetic acid/H2O solution) was added into each well where it was allowed to stain for 30 min. Then, the plates were washed 3–5 times using an acetic acid solution (1% v/v). Once the plate was washed it was allowed to dry overnight. Then, 200 μL of 10 mM Tris base buffer was added to each well and the plate was allowed to sit on an orbital shaker for 0.5–16 h. After mixing, the absorbance of each well was determined by an M1000 Tecan Reader, reading at 510 nm. All experiments were conducted in independent biological triplicate. The obtained data were analyzed with Graphpad Prism 5 using the dose–response two-parameter Hill slope equation (eq 1) to obtain the half-maximal effective concentrations EC50 (defined as the concentration of drug that kills 50% of cells, compared to the untreated control). [drawing 1] 1

PC-3 cells = assay: as above; format: cell-based, human; conditions: for EC50: PC-3 2D monolayer, not washed, SRB at 96 h, n = 3
Protocol: as §1

U87MG cells = assay: as above; format: cell-based, human; conditions: for EC50: U87MG 2D monolayer, not washed, SRB at 96 h, n = 3; for PI (EC50,dark/EC50,light): U87MG
Protocol: as §1

[1] = test system: ITGAV knockdown U87MG cells (U87MG-kd); assay: Cellular Ru uptake by ICP-MS, 2 h; format: cell-based, human; conditions: 10 μM, dark, normoxia, n = 3
Protocol: The uptake studies in U87MG and U87MG-kd cell lines were conducted as follows: 2 × 10^5 cells were cultured in 6-well plates for 24 h in Opti-MEM (2 mL), after which cells were incubated with Δ-[1]Cl2 or Δ-[3]Cl2 (10 μM) for 2 h, washed with cold PBS twice, harvested, concentrated in 200 μL of PBS, and counted using trypan blue and a cell counter (Bio-Rad). Finally, cell pellets were collected in 1.5 mL Eppendorf tubes after removing additional PBS by centrifuging at 500g; 0.25 mL of 65% HNO3 was then added to each tube, and all tubes were kept at room temperature (RT) overnight. The cell lysates were transferred to 15 mL centrifuge tubes (Biologix) and filled with 4.75 mL of MilliQ H2O.
The ruthenium concentration was measured in each sample by ICP-MS (NexION 2000, PerkinElmer), providing the metal content in each well in ppb. Combining the cell numbers and Ru uptake, averaging over technical triplicates, the ruthenium uptake values were finally expressed in μg Ru/million cells.

[2] = Dark stability by UV-vis spectroscopy; format: physicochemical; conditions: 24 h
[3] = 1% O2, dark, 24 h treatment, SRB at 96 h, read-out: EC50,dark
[4] = 1% O2, 520 nm, 7.22 mW/cm^2, 13.1 J/cm^2, 30 min, SRB at 96 h, read-out: EC50,light
[5] = 21% O2, dark, 24 h treatment, SRB at t = 96 h, read-out: EC50,dark
[6] = 21% O2, 24 h treatment, 520 nm, 10.9 mW/cm^2, 13.1 J/cm^2, 20 min, SRB at 96 h, read-out: EC50,light
[7] = 1% O2, dark, 24 h treatment, read-out: EC50,dark
[8] = 1% O2, 520 nm, 7.22 mW/cm^2, 13.1 J/cm^2, 30 min, read-out: EC50,light
[9] = 21% O2, dark, 24 h treatment, read-out: EC50,dark
[10] = 21% O2, 520 nm, 10.9 mW/cm^2, 13.1 J/cm^2, 20 min, read-out: EC50,light

| Substance | EC50 (A549 cells; [3]) [µM] | EC50 (A549 cells; [4]) [µM] | EC50 (A549 cells; [5]) [µM] | EC50 (A549 cells; [6]) [µM] | PI (EC50,dark/EC50,light) (A549 cells; A549, 1% O2) | PI (EC50,dark/EC50,light) (A549 cells; A549, 21% O2) | EC50 (PC-3 cells; [7]) [µM] | EC50 (PC-3 cells; [8]) [µM] | EC50 (PC-3 cells; [9]) [µM] | EC50 (PC-3 cells; [10]) [µM] | PI (EC50,dark/EC50,light) (PC-3 cells; PC-3, 1% O2) | PI (EC50,dark/EC50,light) (PC-3 cells; PC-3, 21% O2) | EC50 (U87MG cells; [7]) [µM] | EC50 (U87MG cells; [8]) [µM] | EC50 (U87MG cells; [9]) [µM] | EC50 (U87MG cells; [10]) [µM] | PI (EC50,dark/EC50,light) (U87MG cells; 1% O2) | also measured |
| --- | --- | --- | --- | --- | --- | --- | --- | --- | --- | --- | --- | --- | --- | --- | --- | --- | --- | --- |
| [Ru(Ph2phen)2(κ^S,κ^N-(Ac-MRGDH-NH2))]Cl2 (sidechain bridge or staple) [Λ-[1]Cl2] [cyclic ruthenium-peptide conjugate, Ac-MRGDH-NH2 coordinated via Met S and His N] | 51 | 19 | 66.8 | 5 | 2.7 | 13 | 74.3 | 46.5 | 66.6 | 5.3 | 1.5 | 12 | 41.4 | 19 | 41.6 | 3.8 | 2.2 | – |
| [Ru(Ph2phen)2(κ^S,κ^N-(Ac-MRGDH-NH2))]Cl2 (sidechain bridge or staple) [Δ-[1]Cl2] [cyclic ruthenium-peptide conjugate, Ac-MRGDH-NH2 coordinated via Met S and His N] | 50.1 | 17.3 | 72.5 | 4.3 | 2.9 | 17 | 61.4 | 50.7 | 52 | 6 | 1.2 | 9 | 42.7 | 18.8 | 39.5 | 3.6 | 2.3 | PI (EC50,dark/EC50,light) (U87MG cells; 21% O2): 11; uptake amount compared to U87MG-wt cells [1]: significantly decreased; dark stability, absorbance spectra ([2]; 50 μM in Opti-MEM containing 2.5% FCS, UV-vis): did not show any variation for 24 h; intensity of the UV-vis spectrum ([2]; 50 μM in Opti-MEM deprived of FCS): gradually decreased, suggesting precipitation |
